From patent publication US20210009549A1, “CANNABINOID DERIVATIVES AND CONJUGATES AND USES THEREOF” ([…] LTD., priority 2018, published 2021)

Tests used:
human α1 GlyR = target: T1, human α1 GlyR (Homo sapiens, UniProt P23415); test: Whole-cell patch clamp, modulation of α1 GlyR-regulated ion channel currents; assay type: cell-based; settings: HEK293 cells stably expressing human α1 GlyR; EC2 glycine (1 μM); holding potential −40 mV; room temperature
T1 construct: expressed in transfected cells
T1 sequence (P23415 29-457): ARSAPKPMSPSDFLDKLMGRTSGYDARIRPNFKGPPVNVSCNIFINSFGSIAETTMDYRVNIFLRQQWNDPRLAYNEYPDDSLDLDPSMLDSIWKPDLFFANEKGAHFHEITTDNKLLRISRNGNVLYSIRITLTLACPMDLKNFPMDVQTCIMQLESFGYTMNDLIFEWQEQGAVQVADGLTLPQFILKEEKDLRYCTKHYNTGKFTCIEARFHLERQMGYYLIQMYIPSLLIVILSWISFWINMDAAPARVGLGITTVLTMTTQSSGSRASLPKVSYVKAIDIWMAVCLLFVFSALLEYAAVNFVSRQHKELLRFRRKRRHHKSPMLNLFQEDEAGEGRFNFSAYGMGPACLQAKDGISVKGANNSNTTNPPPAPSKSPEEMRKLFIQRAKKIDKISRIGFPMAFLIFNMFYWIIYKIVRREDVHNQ
Protocol: (§1) Currents were recorded by whole-cell patch clamp on HEK293 cells that stably expressed either the human α1 or α3 GlyRs. Cells were cultured on glass coverslips and placed into the recording chamber which was perfused by the standard extracellular solution containing (in mM): 140 NaCl, 5 KCl, 2 CaCl2), 1 MgCl2, 10 HEPES/NaOH and 10 glucose (pH 7.4 adjusted with NaOH). For HEK293 cell recordings we employed an intracellular solution consisting of (mM): 145 CsCl, 2 CaCl2), 2 MgCl2, 10 HEPES and 10 EGTA (pH 7.4 adjusted with CsOH; osmolarity 290 mOsm). HEK293 cell recordings were performed at a holding potential of −40 mV. Solutions were applied to cells via gravity induced perfusion via parallel microtubules under micromanipulator control with a solution exchange time of <250 ms. Experiments were conducted at room temperature (20-22° C.). Due to the irreversible nature of the drug actions, only one cell was tested per coverslip.
(§2) Patch pipettes were fabricated from borosilicate hematocrit tubing (Hirschmann Laborgerate, Eberstadt, Germany) and heat polished. Pipettes had tip resistances of […]. Membrane currents were recorded using an Axopatch 200B amplifier and a Digidata 1440 analog-to-digital converter under control of pClamp10 software (Molecular Devices). Currents were filtered at 500 Hz and digitized at 2 KHz.
(§3) After a stable whole cell recording was obtained, EC2 and saturating glycine concentrations activated currents with the anticipated magnitudes were verified. At al and α3 GlyRs, EC2 current magnitudes generally required glycine concentrations of 1 and 80 μM, respectively. The saturating concentration was invariably 2 mM. The standard experimental protocol involved EC2 glycine application for […] every 1 minute. When glycine was not being applied, the cells were continually and directly exposed to flowing drug solution. After 5 minutes of alternate applications of drug and EC2 glycine, 2 mM glycine was briefly applied every 2 minutes. Regular applications of saturating glycine after the 5 minute time point tended to enhance the drug-induced current magnitude effect further.
(§4) The effects of cannabinoid derivatives on al GlyR and α3 GlyR-regulated ion channel currents, as assessed by the patch clamp method, are indicated in Table 6.

[1] = rodents; systemic and intrathecal administration; cited from earlier work
human α3 GlyR = target: T2, human α3 GlyR (Homo sapiens, UniProt O75311); test: Whole-cell patch clamp, modulation of α3 GlyR-regulated ion channel currents; assay type: cell-based; settings: for A3 GlyR (fold increase): HEK293 cells stably expressing human α3 GlyR, EC2 glycine (80 μM), holding potential −40 mV, room temperature
T2 construct: expressed in transfected cells
T2 sequence (O75311 34-464): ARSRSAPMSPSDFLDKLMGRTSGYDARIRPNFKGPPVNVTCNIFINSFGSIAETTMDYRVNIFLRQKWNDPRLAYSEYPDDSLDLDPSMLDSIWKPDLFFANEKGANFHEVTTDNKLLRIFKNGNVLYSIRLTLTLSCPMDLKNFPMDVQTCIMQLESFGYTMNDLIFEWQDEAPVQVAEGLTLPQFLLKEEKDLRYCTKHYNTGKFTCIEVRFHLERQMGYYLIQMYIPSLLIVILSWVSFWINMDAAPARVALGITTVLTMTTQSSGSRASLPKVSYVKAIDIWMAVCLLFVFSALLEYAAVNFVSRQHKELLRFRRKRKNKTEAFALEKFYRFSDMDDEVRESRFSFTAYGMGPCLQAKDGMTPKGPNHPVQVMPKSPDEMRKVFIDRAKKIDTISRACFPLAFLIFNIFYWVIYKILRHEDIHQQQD
Protocol: as §1, §2, §3, §4

hippocampal neurons = settings: cited from earlier work
presynaptic GlyR = settings: brainstem and spinal cord of hyperekplexic mutant mice; cited from earlier work

Row | Molecule | α1 GlyR (fold increase) (human α1 GlyR) | A3 GlyR (fold increase) (human α3 GlyR) [fold] | other results
1 | 7-OH-Desoxy-CBD [Compound 119] | no effect |  | 
2 | C=C(C)[C@@H]1CCC(C)=C[C@H]1c1c(O)cc(CCCCC)cc1O [CBD, cannabidiol] |  |  | Analgesic tolerance [1]: without causing apparent analgesic tolerance; Suppression of chronic inflammatory and neuropathic pain [1]: significantly suppresses chronic inflammatory and neuropathic pain
3 | C=C(C)C1CCC(C)=CC1c1ccc(C(C)(C)CCCCCC)cc1O (stereo not drawn) [Compound 101, 1,1-dimethylheptyl desoxy CBD] | 13 fold | 5 | 
4 | C=C(C)C1CCC(C)=CC1c1ccc(C(C)C(C)CCCCC)cc1O (stereo not drawn) [Compound 102, 1,2-dimethylheptyl-desoxy CBD] | no effect | 18 | Selectivity α3 GlyR versus α1 GlyR (human α3 GlyR; comparison of patch clamp effects on α1 and α3 GlyR): highly selective towards α3 GlyR
5 | C=C(C)C1CCC(C)=CC1c1ccc(C(C)(C)CCC)cc1O (stereo not drawn) [Compound 103, 1,1-dimethylbutyl desoxy CBD] | 4 fold | 10 | 
6 | CCCCCCC(C)(C)c1ccc2c(c1)OC(C)(C)C1CCC(C)=CC21 (stereo not drawn) [Compound 148, 1,1-DMH-desoxy THC] | 4.2 fold | 4 | 
7 | C=C(C)[C@@H]1CCC(C)=C[C@H]1c1c(O)cc(CC2CN(C(C)=O)C2)cc1O [KLS-13019] |  |  | Potency relative to CBD (hippocampal neurons; more potent than CBD): 50 fold; Safety relative to CBD (hippocampal neurons; safer than CBD): > 400 fold
8 | C=C(C)[C@@H]1CCC(C)=C[C@H]1c1ccc(CCCCC)cc1O [desoxy-CBD, dehydroxylcannabidiol] | 26.7 fold | 4.6 | Analgesic tolerance [1]: without causing apparent analgesic tolerance; Suppression of chronic inflammatory and neuropathic pain [1]: significantly suppresses chronic inflammatory and neuropathic pain; Rescue of impaired presynaptic GlyR activity and diminished glycine release (presynaptic GlyR): selectively rescues impaired presynaptic GlyR activity and diminished glycine release
9 | CCCCCc1ccc2c(c1)OC(C)(C)C1CCC(C)=CC21 (stereo not drawn) [desoxy-THC] | 11.2 fold | 4.7 | 
